Source: patent US7589109B2, “Oxyindole derivatives” (Pfizer Inc, priority 2005, dated 2009)

Biological target: T1, 5-HT4 receptors in the rat esophagus (Rattus norvegicus, UniProt Q62758)
T1 construct: The remaining inner tube of smooth muscle was known as the TMM; tissue Charles River (animals); host or cells: rat esophagus tunica muscularis mucosae (TMM) smooth muscle, organ bath
Test: TMM functional assay
Conditions: 1 μM antagonist added to bath; carbachol-contracted rat TMM relaxed by 5-HT
Source text: More specifically, partial agonist activity can be measured according to the following procedures.
Male SD rats (Charles River) weighing 250-350 g were stunned and then killed by cervical dislocation. The esophagus was dissected from immediately proximal to the stomach (including piece of stomach to mark distal end) up to the level of the trachea and then placed in fresh Krebs' solution.
The outer skeletal muscle layer was removed in one go by peeling it away from the underlying smooth muscle layer using forceps (stomach to tracheal direction). The remaining inner tube of smooth muscle was known as the TMM. This was trimmed to 2 cm from the original ‘stomach-end’ and the rest discarded.
The TMMs were mounted as whole ‘open’ tubes in longitudinal orientation in 5 ml organ baths filled with warm (32° C.) aerated Krebs. Tissues were placed under an initial tension of 750 mg and allowed to equilibrate for 60 minutes. The tissues were re-tensioned twice at 15 minute intervals during the equilibration period. The pump flow rate was set to 2 ml/min during this time.
Following equilibration, the pump was switched off. The tissues were exposed to 1 μM carbachol and contracted and reached a steady contractile plateau within 15 minutes. Tissues were then subject to 1 μM 5-HT (this was to prime the tissues). The tissues relaxed in response to 5-HT fairly rapidly—within 1 minute. […]

T1 sequence (Q62758 whole entry): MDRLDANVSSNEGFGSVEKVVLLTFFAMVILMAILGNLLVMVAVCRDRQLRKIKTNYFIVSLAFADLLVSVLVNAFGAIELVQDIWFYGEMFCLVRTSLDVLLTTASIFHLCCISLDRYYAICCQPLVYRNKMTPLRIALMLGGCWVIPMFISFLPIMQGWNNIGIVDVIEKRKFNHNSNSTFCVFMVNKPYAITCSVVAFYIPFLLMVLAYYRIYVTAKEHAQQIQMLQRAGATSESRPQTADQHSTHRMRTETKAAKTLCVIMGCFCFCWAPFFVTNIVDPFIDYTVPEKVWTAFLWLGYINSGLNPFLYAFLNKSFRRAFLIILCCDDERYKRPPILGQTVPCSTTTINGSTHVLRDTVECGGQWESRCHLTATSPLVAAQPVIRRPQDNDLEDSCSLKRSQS

Row | SMILES | reversal of agonist-induced relaxation
1 | O=C(OCCN1CCCCC1)c1c[nH]c2ccccc12 [SB 203,186, 1H-Indole-3-carboxylic acid, 2-(1-piperidinyl)ethyl ester] | reversed 5-HT induced relaxation

System: not given
Test: not given
Conditions: not given

Row | SMILES | melting point [°C]
2 | CC(C)(CN1CCC(F)(CNC(=O)N2C(=O)C(C)(C)c3ccc(F)cc32)CC1)C(=O)O | 176
3 | CC(C)(CN1CCC(CNC(=O)N2C(=O)C(C)(C)c3ccccc32)CC1)C(=O)O | 164.5
4 | CC1(C)C(=O)N(C(=O)NCC2CCN(C(C)(C)C(=O)O)CC2)c2cc(F)ccc21 | 213
5 | CC1(C)C(=O)N(C(=O)NCC2CCN(CC3(C(=O)O)CCC3)CC2)c2ccccc21 | 170.9
6 | CC(C)(CN1CCC(F)(CNC(=O)N2C(=O)C(C)(C)c3ccccc32)CC1)C(=O)O | 156
7 | CC(C)(CN1CCC(CNC(=O)N2C(=O)C3(CCCC3)c3ccccc32)CC1)C(=O)O | 189.1
8 | CC1(C)C(=O)N(C(=O)NCC2(O)CCN(CC3(C(=O)O)CCC3)CC2)c2cc(F)ccc21 | 159
9 | CC1(C)C(=O)N(C(=O)NCC2CCN(CC3(C(=O)O)CCC3)CC2)c2cc(F)ccc21 | 193
10 | CC(C)(CN1CCC(CNC(=O)N2C(=O)C(C)(C)c3ccc(F)cc32)CC1)C(=O)O | 134

Now from value to compound:

Row | melting point [°C] | SMILES
11 | 160.4 | O=C(NCC1CCN(CC2(C(=O)O)CCCCC2)CC1)N1C(=O)C2(CCCC2)c2ccccc21
12 | 188.1 | O=C(NCC1CCN(CC2(C(=O)O)CCCC2)CC1)N1C(=O)C2(CCCC2)c2ccccc21
13 | 161.3 | O=C(NCC1CCN(CC2(C(=O)O)CCOCC2)CC1)N1C(=O)C2(CCCC2)c2ccc(F)cc21
14 | 171 | O=C(NCC1CCN(CC2(C(=O)O)CCC2)CC1)N1C(=O)C2(CCCC2)c2ccccc21
15 | 150.3 | O=C(NCC1CCN(CC2(C(=O)O)CCC2)CC1)N1C(=O)C2(CCCC2)c2ccc(F)cc21
16 | 186.5 | O=C(NCC1CCN(CC2(C(=O)O)CC2)CC1)N1C(=O)C2(CCCC2)c2ccccc21
17 | 146.3 | O=C(NCC1CCN(CC2(C(=O)O)CCOCC2)CC1)N1C(=O)C2(CCCC2)c2ccccc21
